Here are results for 17 molecules from publication PMC9025851, “Polyphenolic Compounds from Lespedeza bicolor Protect Neuronal Cells from Oxidative Stress” (Antioxidants, 2022).

The test system of series [1] is neuronal HT22 cells. Also on record: method as in PMID 33397834. The conditions noted are these: cited from earlier work; for Neuroprotective effect against glutamate-induced neurotoxicity: HT22 cells.
Series [2] concerns MAO-B. On the set-up: method as in PMID 27575476, PMID 32087226. To be noted: cited from earlier work.
Series [3] concerns MAO-A. On the set-up: method as in PMID 27575476, PMID 32087226. To be noted: cited from earlier work.
Series [4] in a line: DPPH radical-scavenging effect. To be noted: 30 min; DPPH• 10^−4 M in MeOH; mean ± SEM, n = 3; read-out: DPPH-Scavenging Effect SC50. How it is done:
The 2,2-diphenyl-1-picrylhydrazyl (DPPH^•) radical-scavenging effect of polyphenolic compounds 7–11 was determined as described in [24]. Polyphenolic compounds 7, 8, 9, 10, and 11 were added to DPPH^• solution in MeOH (10^−4 M) at concentrations from 6 to 34 µM. The reacting mixture was kept in the dark for 30 min at room temperature. Then, we measured the absorbance at 517 nm using a Shimadzu UV 1240 spectrophotometer (Shimadzu, Kyoto, Japan). Equation (1) was used to calculate the DPPH^• radical-scavenging effect (%):(1) DPPH^• scavenging effect,%=A0−Ax/A0 where A0 is the absorbance of DPPH^• solution of a blank sample (without polyphenolic compounds); AX is the absorbance of DPPH^• solution in the presence of different concentrations of polyphenolic compounds.
Quercetin was used as a reference compound. All experiments were performed in triplicate. We calculated the half-maximal scavenging concentration (SC50) for polyphenolic compounds by plotting the DPPH^• scavenging effect (%) against the concentrations of polyphenolic compounds. SC50 values are given as the mean value ± SEM.

Series [5] is described as follows: Ferric reducing antioxidant power (FRAP) assay. To be noted: 4 min, absorbance 595 nm; mean ± SEM, n = 3. The procedure:
We performed the FRAP assay as described in [29]. We prepared the FRAP reagent by mixing 2.5 mL of TPTZ (2,4,6-tris(2-pyridyl)-s-triazine) solution (10 mM) in 40 mM HCl and 25 mL of FeCl3 solution (20 mM) in acetate buffer solution (300 mM, pH 3.6). Polyphenolics 7–11 were added to 3 mL of FRAP reagent at concentrations from 6 to 34 µM. The mixture was kept in the dark at room temperature for 4 min. Then, we measured the absorbance at 595 nm using a Shimadzu UV 1240 spectrophotometer. Equation (2) was used to calculate the FRAP values for polyphenolic compounds 7–11:(2) FRAP=CFe/Cx where CFe is the concentration of Fe^2+ (µM) formed in the reaction; CX is the concentration of polyphenolic compounds in the reacting mixture.
The concentration of Fe^2+ (µM) formed in the reaction was determined using the calibration curve obtained for different concentrations of FeSO4·7H2O.

The nature of series [6]: Cytotoxicity, MTT assay. The conditions noted are these: mouse, Neuro-2a neuroblastoma cells, read-out: Cytotoxic activity EC50. It counts as cell-based, murine. How it is done:
The murine neuroblastoma cell line Neuro-2a (CCL-131) was purchased from American Type Culture Collection (ATCC®) (Manassas, VA, USA). Cells were cultured in Dulbecco’s Modified Eagle Medium (Biolot, St. Petersburg, Russia). The medium contained 10% fetal bovine serum (Biolot, St. Petersburg, Russia) and 1% penicillin/streptomycin (Biolot, St. Petersburg, Russia). Cells were incubated at 37 °C in a humidified atmosphere containing 5% (v/v) CO2.
Stock solutions of polyphenolic compounds were prepared in DMSO at a concentration of 10 mM. […]
We incubated Neuro-2a cells (1 × 10^4 cells/well) at 37 °C in a CO2 incubator for 24 h until they formed an adherent monolayer. Then, 20 μL of the tested solution was loaded onto the cells and incubated for 24 h. After incubation, the medium containing the polyphenolic test compounds was replaced by 100 μL of fresh medium. Then, we added 10 μL of MTT (3-(4,5-dimethylthiazol-2-yl)-2,5-diphenyltetrazolium bromide) (Sigma-Aldrich, St. Louis, MO, USA) stock solution (5 mg/mL) to each well and incubated the microplate for 4 h. Then, 100 μL of SDS-HCl solution (1 g SDS/10 mL dH2O/17 μL 6 M HCl) was added to each well, followed by incubation for 18 h. We measured the absorbance of the converted dye formazan on a Multiskan FC microplate photometer (Thermo Scientific, Waltham, MA, USA) at a wavelength of 570 nm. We performed all experiments in triplicate and expressed the cytotoxic activity as percent of living cells.
For orientation: Tetrazolium assays rely on reduction of a dye to a coloured formazan, in cell work by metabolically active cells.

The subject of series [7] is PQ-treated Neuro-2a cells. In words: PQ-induced neurotoxicity, cell viability (MTT). It counts as cell-based, murine. The conditions noted are these: PQ 1 mM; for Effect on percentage of living cells after treatment with PQ: compounds 0.01–10 μM, 1 h pre-treatment, MTT after 24 h; for Increase in percentage of living cells after treatment with PQ: compound 1 and 10 μM, MTT. How it is done: (§1) After 24 h of adhesion, Neuro-2a cells (1 × 10^4 cells/well) were treated with polyphenolic compounds at concentrations of 0.01–10 μM for 1 h. Subsequently, 1 mM of PQ, 10 μM rotenone or 80 μM of 6-OHDA (Sigma-Aldrich, St. Louis, MO, USA) were added. We used MTT assay to determine the percentage of living cells (cell viability) after 24 h of incubation. Cells incubated without inductors or with inductors were used as positive and negative control, respectively. The results are presented as percentages of the positive control value.

Details of series [8]: method as in PMID 31004693. To be noted: 30 min; mean ± SEM, n = 3; previously published; read-out: DPPH-Scavenging Effect SC50; cited from earlier work. (In general: The DPPH test is a chemical assay of radical scavenging.)
Details of series [9]: method as in PMID 31004693. To be noted: mean ± SEM, n = 3; previously published; cited from earlier work.
For series [10], the system named is 6-OHDA-treated Neuro-2a cells. In words: 6-OHDA-induced neurotoxicity, cell viability (MTT). In kind it is cell-based, murine. To be noted: 6-OHDA 80 µM, p < 0.05. The procedure:
as §1

For series [11], the system named is 6-OHDA-treated Neuro-2a cells. Put plainly: ROS level in 6-OHDA-treated cells (H2DCF-DA). In kind it is cell-based, murine. The conditions noted are these: 6-OHDA 80 µM. The procedure: After 24 h of adhesion, Neuro-2a cells (1 × 10^4 cells/well) were incubated with compounds (0.01–10 µM) for 1 h. Then, we added rotenone (10 μM), 6-OHDA (80 μM), or PQ (1 mM) to each well and incubated cells for 1 h, 1 h, or 3 h, respectively. To evaluate the level of intracellular ROS, we added 20 µL of 2,7-dichlorodihydrofluorescein diacetate solution ([…], H2DCF-DA, Molecular Probes, Eugene, OR, USA) to each well, so that the final concentration was 10 µM, and incubated the microplate at 37 °C for an additional 30 min. Quercetin was used as a reference compound.

The subject of series [12] is PQ-treated Neuro-2a cells. Put plainly: Mitochondrial membrane potential (TMRM) in PQ-treated cells. It counts as cell-based, murine. The procedure: The cells were incubated for 1 h in a 96-well plate (1 × 10^4 cells/well) with polyphenolic compounds (1 and 10 µM). Then, PQ (500 µM) was added, and the cell suspension was incubated for 1 h. Cells incubated without PQ and compounds were used as positive control, and cells with PQ alone were used as negative control. We added the tetramethylrhodamine methyl (TMRM) (Sigma-Aldrich, St. Louis, MO, USA) solution (500 nM) to each well, and incubated cells for 30 min at 37 °C. After the incubation, we measured the intensity of fluorescence with a PHERAstar FSplate reader (BMG Labtech, Ortenberg, Germany) at λex = 540 nm and λem = 590 nm. We processed the data using MARS Data Analysis v3.01R2 (BMG Labtech, Ortenberg, Germany) and presented results as percentages of the positive control value.

Where two headings read alike, the source gives them in different places. Bounds are passed on as bounds.

In the case of 2-geranyl-1-methoxylespeflorin G11, the “Neuroprotective effect against glutamate-induced neurotoxicity” value (“Neuroprotective effect” for short) in series [1] is listed as “significant neuroprotective effects”. Moreover, the “Apoptosis in HT22 cells” value in series [1] (by inhibiting intracellular ROS generation and mitochondrial dysfunction) was “attenuate”.
As to 2-geranylbicolosin A, the “Neuroprotective effect” value in series [1] is “significant neuroprotective effects”.
As for `COc1c(CC=C(C)C)c(O)cc2c1C1Oc3c(ccc(O)c3CC=C(C)C)C1CO2` (centres unmarked) [1-methoxyerythrabyssin II], in series [1], the “Neuroprotective effect” value is given as “significant neuroprotective effects”.
For `COc1cc(O)cc2c1C1Oc3c(ccc(O)c3CC=C(C)C)C1CO2` (centres unmarked) [1-methoxylespeflorin G11], the “Neuroprotective effect” value in series [1] is on record as “significant neuroprotective effects”.
Regarding `COc1cc2c(cc1O)OC1c3c(OC)cc(O)c(C/C=C(\C)CCC=C(C)C)c3OCC21` (centres unmarked) [8-methoxybicolosin C], the “Neuroprotective effect” value in [1] was “significant neuroprotective effects”.
`COc1ccc2c(c1O)OC[C@H]1c3cc4c(cc3O[C@@H]21)OCO4` [(–)-4-hydroxy-3-methoxy-8,9-methylenedioxypterocarpan]: the “Inhibition of MAO-B” value in [2] is “effectively inhibit”. Also, the “Inhibition of MAO-A” value in series [3] was “effectively inhibit”.
In the case of `O=C1O[C@H]([C@@H](O)CO)C(O)=C1O` [Ascorbic acid, reference compound], in [4], the EC50 was determined as 30.5 ± 2.1 µM. Besides, the FRAP in [5] is recorded as 3.43 ± 0.33 mol (Fe^2+)/mol (polyphenolic compound X).
As for `CC(C)=CCC/C(C)=C/Cc1c(O)c(O)cc2c1O[C@H]1c3ccc(O)cc3OC[C@@H]21` [Compound 1, (6aR,11aR)-6a,11a-dihydrolespedezol A2], the EC50 at 24 h in series [6] came to 72 µM. The “Effect on percentage of living cells after treatment with PQ” value (“Effect on percentage of living cells” below) in series [7] is on record as “did not exhibit any effect”. Further, the EC50 in series [8] is 24.3 ± 3.7 µM. The FRAP in series [9] is 1.78 ± 0.16 mol (Fe^2+)/mol (polyphenolic compound X).
Regarding `CC(C)=CCC[C@@]1(C)C=Cc2c(c(O)cc3c2O[C@H]2c4ccc(O)cc4OC[C@@H]32)O1` [Compound 2, (6aR,11aR,3′S)-6a,11a-dihydrolespedezol A3], the EC50 at 24 h in series [6] came out at 75 µM. Also, in series [7], the “Effect on percentage of living cells” value is “did not exhibit any effect”. The “Increase in percentage of living cells after 6-OHDA treatment versus 6-OHDA-treated cells” value in [10] is 8.7%. Besides, the “Decrease of ROS level compared to 6-OHDA-treated cells” value in [11] came to 4.5 times. Besides, in series [11] (1 h, H2DCF-DA), the “Effect on ROS levels in 6-OHDA-treated cells” value is recorded as “significantly decreased”. For the same molecule, the EC50 in series [8] was 25 ± 2.2 µM. The FRAP in [9] is on record as 1.31 ± 0.02 mol (Fe^2+)/mol (polyphenolic compound X).
In the case of `CC(C)=CCC/C(C)=C/Cc1c(O)c(O)cc(C(=O)C(=O)c2ccc(O)cc2O)c1O` [Compound 5, bicoloketone], the EC50 at 24 h in [6] was determined as 100 µM. In [7], the “Effect on percentage of living cells” value is on record as “significantly increased” and the “Increase in percentage of living cells after treatment with PQ” value is 8–10%. Also, the “Increase in mitochondrial membrane potential” value in series [12] (compound 10 µM, PQ-treated Neuro-2a, TMRM) is on record as 23%. For the same molecule, in series [8], the EC50 was 26.1 ± 3 µM. In series [9], the FRAP is reported as 0.86 ± 0.04 mol (Fe^2+)/mol (polyphenolic compound X).
On to `CC(C)=CCC/C(C)=C/Cc1c(O)c(O)cc2c1oc1c3ccc(O)cc3oc(=O)c21` [Compound 7, lespedezol A6], for which the EC50 in series [4] stood at 25.7 ± 3.4 µM. In addition, the FRAP in series [5] was 1.83 ± 0.16 mol (Fe^2+)/mol (polyphenolic compound X). Moreover, in series [6], the EC50 at 24 h is over 100 µM.
For the molecule `CC(C)=CCC/C(C)=C/Cc1c(O)c(C(=O)c2c(-c3ccc(O)cc3O)oc3c(C/C=C(\C)CCC=C(C)C)c(O)c(O)cc23)cc2c1OC1c3cc(CC=C(C)C)c(O)cc3OCC21` (centres unmarked) [Compound 8, lespebicolin B], in series [4], the EC50 worked out at 26.7 ± 3.8 µM. Further, in series [5], the FRAP is on record as 1.95 ± 0.19 mol (Fe^2+)/mol (polyphenolic compound X). Besides, the EC50 at 24 h in series [6] is over 100 µM. In [7], the “Effect on percentage of living cells” value is given as “significantly increased” and the “Increase in percentage of living cells after treatment with PQ” value is 8–10%.
Turning to `CC(C)=CCC/C(C)=C/Cc1c(O)c(O)cc(C(=O)C(=O)c2cc(CC=C(C)C)c(O)cc2O)c1O` [Compound 11, 5′-isoprenylbicoloketone], the EC50 in [4] came to 19.4 ± 2.2 µM. In addition, the FRAP in [5] is reported as 1.45 ± 0.08 mol (Fe^2+)/mol (polyphenolic compound X). Further, the EC50 at 24 h in series [6] was 87 µM.
For the molecule `C[n+]1ccc(-c2cc[n+](C)cc2)cc1` [PQ, paraquat, reference compound], in series [12] (1 h exposure of Neuro-2a cells with PQ alone), the “Decrease in TMRM fluorescence” value is 23%.
Regarding `O=c1c(O)c(-c2ccc(O)c(O)c2)oc2cc(O)cc(O)c12` [Quercetin, reference compound], in series [4], the EC50 was 8.9 ± 0.2 µM. Also, the FRAP in [5] is recorded as 5.11 ± 0.31 mol (Fe^2+)/mol (polyphenolic compound X).
On to `COc1c(CC=C(C)C)c(O)cc2c1[C@@H]1Oc3c(cc(C)c(O)c3CC=C(C)C)[C@@H]1CO2` [bicolosin A], for which the “Neuroprotective effect” value in series [1] was “significant neuroprotective effects”.
Consider medicarpin, for which the “Inhibition of MAO-B” value in [2] was “selectively inhibited”. In series [3], the “Inhibition of MAO-A” value is recorded as “did not effectively inhibit”.
